Where two headings read alike, the source gives them in different places.
What was measured:
[1] = in the presence of CO2 and N2 mixtures; cited from earlier work
[2] = cited from earlier work
microbial growth = conditions: pCO2~300 mbar; Baez A et al. 2009; cited from earlier work
[3] = system: Escherichia coli, strain MG1655; experiment: Effect of high partial pressure of carbon dioxide on growth and metabolism of E. coli cultured on glucose (batch fermenters); format: cell-based; conditions: pCO2~800 mbar
Experimental: Escherichia coli, strain MG1655 (ATCC Number 700926; American Type Culture Collection (ATCC), Manassas, Va.), was grown in batch mode in 1.4 L Multifors fermenters (Infors A G, Basel, Switzerland) equipped with temperature, pH and dO (dissolved oxygen) control. Initially, the fermenters contained in 1 L total volume: KH2PO4, 7.5 g/L; MgSO4.7H2O, 2.0 g/L; citric acid, 1.83 g/L; ferric ammonium citrate, 0.3 g/L; CaCl2.2H2O, 0.2 g/L; sulfuric acid (98%), 1.2 mL/L; yeast extract, 5 g/L; and glucose (10 g/L). After sterilization, 10 mL of a trace metal mixture and 1 mL of a thiamine solution (150 mM) was added and the medium was adjusted to the desired pH (see below) with 3 M NaOH. The trace metal mixture contained: MnSO4.H2O, 3 g/L; NaCl, 1 g/L; FeSO4.7H2O, 0.1 g/L; CoCl2.6H2O, 0.1 g/L; ZnSO4.7H2O, 0.1 g/L; CuSO4.5H2O, 0.0064 g/L; H3BO3, 0.01 g/L; and Na2MoO4.2H2O, 0.01 g/L. In one set of three fermenters, gas flow (air) was fixed at 0.5 VVM (volume per volume per minute) and pH was automatically maintained at pH 6.2, pH 6.5 and 6.8 with the addition of 3 M NaOH. […]
After equilibration with the gases, evident by the cessation of NaOH addition, the fermenters were inoculated at an initial OD600 of approximately 0.4 absorbance units (AU). […]

SMILES: C=CC(=C)C [isoprene]
- flammable minimum oxygen concentration (MOC) value [1]: about 9.7%
- solubility in water ([2]; at 1 bar and 25° C.): about 642 ppm

SMILES: C=CC [propylene]
- flammable minimum oxygen concentration (MOC) value [1]: about 13%

SMILES: C=CC=C [1,3-butadiene]
- flammable minimum oxygen concentration (MOC) value [1]: about 10.5%
- solubility in water ([2]; at 1 bar and 20° C.): about 735 ppm

SMILES: C=C(C)C [isobutene]
- flammable minimum oxygen concentration (MOC) value [1]: about 13%
- solubility in water ([2]; at 1 bar and 20° C.): about 260 ppm

SMILES: O=C=O [carbon dioxide]
- effect on microbial growth (microbial growth): significantly inhibit microbial growth
- effect on growth rate of E. coli [3]: only slight impairments of growth rate
